For one assay, the target named is HDAC8 (Homo sapiens (Human), UniProt Q9BY41). The experiment in a line: In vitro enzyme inhibition assay - HDAC (HDAC-Glo I/II), HDAC8. Particulars: read-out: HDAC IC50 (nM) HDAC 8. It counts as biochemical. Put shortly: (§1)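 Inhibition was measured with the HDAC-Glo I/II luminescent assay, testing compound as an 8-point, 5-fold dilution series from a 1 mM DMSO stock. Luminescence (RLU) was normalized to no-inhibitor and no-enzyme controls, and IC50 was derived by four-parameter variable-slope fitting.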

Another assay has as its target LSD1 (Homo sapiens (Human), UniProt O60341). The experiment in a line: In vitro enzyme inhibition assay - LSD1 (HTRF). It counts as biochemical. (TR-FRET usually uses a lanthanide donor and a delayed reading to cut background.)
For a further assay, the target named is pan-HDAC. The experiment in a line: In vitro enzyme inhibition assay - HDAC (HDAC-Glo I/II), pan-HDAC. It counts as biochemical. Put shortly: as §1
In another assay the test system is NCI-H1417 cells. The experiment in a line: In vitro cell inhibition assay - H1417 cell proliferation (CellTiter-Glo). Format: cell-based. Put shortly:
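Cells exposed to 8 compound concentrations (5-fold dilutions) in BEGM with 10% FBS for 7 days at 37° C., 5% CO2. Viable cells measured by CellTiter-Glo luminescence; inhibition versus no-inhibitor and no-cell controls, IC50 fitted.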
A general note: ATP-based viability assays read luminescence as a measure of living cells.

For a further assay, the system named is NCI-H69 cells. Nature of the assay: In vitro cell inhibition assay - NCI-H69 cell proliferation (CellTiter-Glo). It counts as cell-based. Put shortly: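 NCI-H69 cells seeded at 1×10^3 per well overnight, then given 8 compound concentrations (5-fold dilutions) in RPMI-640 with 20% FBS for 7 days at 37° C., 5% CO2. Viable cells by CellTiter-Glo luminescence; IC50 fitted from inhibition rate versus no-inhibitor and no-cell controls.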

A further assay concerns DU145 cells. The experiment in a line: In vitro cell inhibition assay - DU145 cell proliferation (CellTiter-Glo). Format: cell-based. The method, then: 5. In Vitro Cell Inhibition Assay—DU145 Cell Proliferation
The inhibitory effect of the compounds on cell proliferation was assessed by detecting the number of viable cells using the CellTiter-Glo® reagent. DU145 cells in the logarithmic growth phase were collected and inoculated into transparent bottom 96-well plates at a density 1×10^3 cells per well with 100 μL medium, and incubated at 37° C., 5% CO2 overnight. The compounds were sequentially diluted in a 5-fold concentration gradient with DMSO to obtain 8 different concentrations. These were then diluted with RPMI-640 (containing 10% FBS) cell culture medium to obtain the compound working solution (2×), which was added to the cell supernatant at 100 μL per well. The incubation continued for 6 days at 37° C., 5% CO2. The plate was then removed and equilibrated at room temperature (25° C.) along with the CellTiter-Glo® mixing reagent for 10-30 minutes. After centrifugation, 120 μL of the culture medium was carefully aspirated from each well, and 60 μL of CellTiter-Glo® reagent was added. The cells were thoroughly mixed with the CellTiter-Glo® mixing reagent using a microplate shaker for 2 min. and then incubated at room temperature for 10 min. The 96-well plate was subsequently placed on a multifunctional microplate reader to record the Luminescence values (RLU).
The inhibition rate was calculated using the following formula: […]
Note: ‘Negative’ refers to the group without inhibitors; ‘Blank’ refers to the group without cells.
The IC50 value was determined by fitting the inhibition rate by GraphPad Prism software.

The mark [1] stands for this setting: H1417 small cell lung cancer cell proliferation.
Setting [2] is: H69 small cell lung cancer cell proliferation.
The mark [3] stands for this setting: Du145 prostate cancer cell proliferation.
Where [4] appears, read: Homo sapiens, NCI-H1417, H1417 small cell lung cancer cell proliferation.
Setting [5] is: Homo sapiens, NCI-H69, H69 small cell lung cancer cell proliferation.
[6] abbreviates: Homo sapiens, DU-145, Du145 prostate cancer cell proliferation.

Where a name gives a salt, the structure may show the parent alone.

Chain of HDAC8 (Q9BY41 whole entry): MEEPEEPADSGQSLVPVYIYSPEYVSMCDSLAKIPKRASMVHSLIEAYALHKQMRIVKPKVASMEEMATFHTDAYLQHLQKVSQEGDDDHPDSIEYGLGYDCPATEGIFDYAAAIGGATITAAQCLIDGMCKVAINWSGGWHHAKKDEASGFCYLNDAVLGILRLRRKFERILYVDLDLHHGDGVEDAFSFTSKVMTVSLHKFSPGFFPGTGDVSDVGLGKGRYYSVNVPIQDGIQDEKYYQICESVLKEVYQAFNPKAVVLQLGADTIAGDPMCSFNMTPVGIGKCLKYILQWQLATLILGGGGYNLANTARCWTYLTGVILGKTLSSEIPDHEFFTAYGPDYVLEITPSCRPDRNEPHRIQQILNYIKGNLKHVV

Take `COc1ccc(-c2ccc(CN3CC[C@H](NCc4ccc(/C=C/C(=O)NO)cc4)C3)cc2-c2ccc(C#N)c(F)c2)cc1O` [Example 74, (S,E)-3-(4-(((1-((4″-cyano-3″-fluoro-3-hydroxy-4-methoxy-[1,1:2′,1″-terphenyl]-4′-yl)methyl)pyrrolidin-3-yl)amino)methyl)phenyl)-N-hydroxyacrylamide formate]: the IC50 at HDAC8 was 207 nM; at LSD1, 2.26 nM; against pan-HDAC, 23.1 nM; in the assay on NCI-H1417 cells (setting [1]), 40.1 nM; in the assay on NCI-H69 cells (setting [2]), 205 nM; in the assay on DU145 cells (setting [3]), 553 nM.
Take `COc1cc(-c2ccc(CN3CC[C@H](NCc4ccc(/C=C/C(=O)NO)cc4)C3)cc2-c2ccc(C#N)c(F)c2)ccc1O` [Example 75, (S,E)-3-(4-(((1-((4″-Cyano-3″-fluoro-4-hydroxy-3-methoxy-[1,1:2,1″-terphenyl]-4′-yl)methyl)pyrrolidin-3-yl)amino)methyl)phenyl)-N-hydroxyacrylamide formate]: the IC50 was 212 nM on HDAC8; 129 nM on LSD1; 76.6 nM on pan-HDAC; 473 nM in the assay on NCI-H1417 cells (setting [4]); 403 nM in the assay on NCI-H69 cells (setting [5]); 677 nM with DU145 cells (setting [6]).
In the case of `COc1ccc(-c2cnc(N3CCC(Nc4cccc(/C=C/C(=O)NO)c4)CC3)c(C#N)c2-c2ccc(C#N)c(F)c2)cc1O` [Example 81, (E)-3-(3-((1-(3-cyano-4-(4-cyano-3-fluorophenyl)-5-(3-hydroxy-4-methoxyphenyl)pyridin-2-yl)piperidin-4-yl)amino)phenyl)-N-hydroxyacrylamide formate], the IC50 on HDAC8 was found to be 695 nM; at LSD1, 140 nM; at pan-HDAC, 1220 nM; in the assay with NCI-H1417 cells (setting [4]), 73.9 nM; in the assay with NCI-H69 cells (setting [5]) it was 516 nM; with DU145 cells (setting [6]) it was 776 nM.
In the case of `COc1ccc(-c2cnc(N3CCC(Nc4ncc(C(=O)NO)cn4)CC3)c(C#N)c2-c2ccc(C#N)c(F)c2)cc1O` [Example 83, 2-((1-(3-Cyano-4-(4-cyano-3-fluorophenyl)-5-(3-hydroxy-4-methoxyphenyl)pyridin-2-yl)piperidin-4-yl)amino)-N-hydroxypyrimidine-5-carboxamide formate], the IC50 on HDAC8 is 374 nM; on LSD1, 8.51 nM; on pan-HDAC it was 438 nM; in the assay with NCI-H1417 cells (setting [4]), 76.8 nM; in the assay with NCI-H69 cells (setting [5]), 1140 nM; in the assay with DU145 cells (setting [6]), 2820 nM.
On to `COc1ccc(-c2cnc(N3CCC(N)(c4ccc(/C=C/C(=O)NO)cc4)CC3)c(C#N)c2-c2ccc(C#N)c(F)c2)cc1O` [Example 85, (E)-3-(4-(4-amino-1-(3-cyano-4-(4-cyano-3-fluorophenyl)-5-(3-hydroxy-4-methoxyphenyl)pyridin-2-yl))piperidin-4-yl)phenyl)-N-hydroxyacrylamide formate], for which the IC50 was 542 nM on HDAC8; 209 nM against LSD1; 110 nM against pan-HDAC; 256 nM with NCI-H1417 cells (setting [1]); 407 nM in the assay on NCI-H69 cells (setting [2]); 1550 nM with DU145 cells (setting [3]).
In the case of `COc1cc(-c2cnc(N3CCC(NCCc4cccc(/C=C/C(=O)NO)c4)CC3)c(C#N)c2-c2ccc(C#N)c(F)c2)ccc1O` [Example 92, (E)-3-(3-(2-(1-(3-Cyano-4-(4-cyano-3-fluorophenyl)-5-(4-hydroxy-3-methoxyphenyl)pyridin-2-yl)piperidin-4-yl)amino)ethyl) phenyl)-N-hydroxyacrylamide formate], the IC50 on HDAC8 amounted to 623 nM; at LSD1, 1.41 nM; on pan-HDAC, 340 nM; in the assay with NCI-H1417 cells (setting [4]), 63 nM; in the assay with NCI-H69 cells (setting [5]), 497 nM; with DU145 cells (setting [6]), 2370 nM.
Turning to `COc1cc(-c2cnc(N3CC4CC3CC4NCc3ccc(/C=C/C(=O)NO)cc3)c(C#N)c2-c2ccc(C#N)c(F)c2)ccc1O` (stereo not drawn) [Example 94, (E)-3-(4-(2-(3-Cyano-4-(4-cyano-3-fluorophenyl)-5-(4-hydroxy-3-methoxyphenyl)pyridin-2-yl)-2-azabicyclo[2.2.1]heptan-5-yl)amino)methyl) phenyl)-N-hydroxyacrylamide formate], the IC50 on HDAC8 was determined as 256 nM; at LSD1, 173 nM; against pan-HDAC, 110 nM; in the assay with NCI-H1417 cells (setting [1]), 160 nM; with NCI-H69 cells (setting [2]), 190 nM; with DU145 cells (setting [3]) it was 495 nM.
As for `COc1cc(-c2cnc(N3CCC(NCc4ccc(/C=C/C(=O)NO)cn4)CC3)c(C#N)c2-c2ccc(C#N)c(F)c2)ccc1O` [Example 95, (E)-3-(6-((1-(3-Cyano-4-(4-cyano-3-fluorophenyl)-5-(4-hydroxy-3-methoxyphenyl)pyridin-2-yl)piperidin-4-yl)amino)methyl) pyridin-3-yl)-N-hydroxyacrylamide formate], the IC50 at HDAC8 came out at 87.2 nM; against LSD1 it was 63.6 nM; against pan-HDAC, 49 nM; in the assay with NCI-H1417 cells (setting [4]), 335 nM; with NCI-H69 cells (setting [5]) it was 304 nM; in the assay with DU145 cells (setting [6]), 628 nM.
Take `COc1cc(-c2cnc(N3CCC(NCc4cccc(/C=C/C(=O)NO)c4)CC3)c(C#N)c2-c2ccc(C#N)c(F)c2)ccc1O` [Example 98, (E)-3-(3-((1-(3-Cyano-4-(4-cyano-3-fluorophenyl)-5-(4-hydroxy-3-methoxyphenyl)pyridin-2-yl)piperidin-4-yl)amino)methyl) phenyl)-N-hydroxyacrylamide formate]: the IC50 amounted to 480 nM on HDAC8; 160 nM against LSD1; 394 nM against pan-HDAC; 707 nM in the assay on NCI-H1417 cells (setting [4]); 528 nM with NCI-H69 cells (setting [5]); 2230 nM with DU145 cells (setting [6]).
`COc1cc(-c2cnc(N3CCC(N(C)Cc4ccc(/C=C/C(=O)NO)cc4)CC3)c(C#N)c2-c2ccc(C#N)c(F)c2)ccc1O` [Example 99, (E)-3-(4-(((1-(3-Cyano-4-(4-cyano-3-fluorophenyl)-5-(4-hydroxy-3-methoxyphenyl)pyridin-2-yl)piperidin-4-yl)(methyl)amino)methyl)phenyl)-N-hydroxyacrylamide formate]: the IC50 on HDAC8 stood at 120 nM; against LSD1 it was 9.5 nM; against pan-HDAC, 50.9 nM; in the assay on NCI-H1417 cells (setting [4]), 11.8 nM; with NCI-H69 cells (setting [5]) it was 97.3 nM; in the assay on DU145 cells (setting [6]), 122 nM.
On to `COc1cc(-c2cnc(N3CCC(NCc4ccc(/C=C/C(=O)NO)cc4)CC3)c(C#N)c2-c2ccc(C#N)c(F)c2)ccc1O` [Example 100, (E)-3-(4-((1-(3-Cyano-4-(4-cyano-3-fluorophenyl)-5-(4-hydroxy-3-methoxyphenyl)pyridin-2-yl)piperidin-4-yl)amino)methyl) phenyl)-N-hydroxyacrylamide hydrochloride], for which the IC50 at HDAC8 turned out to be 36 nM; at LSD1 it was 49.5 nM; on pan-HDAC, 35.5 nM; in the assay with NCI-H1417 cells (setting [4]) it was 118 nM; with NCI-H69 cells (setting [5]), 104 nM; in the assay on DU145 cells (setting [6]), 313 nM.
For the compound `N#Cc1ccc(-c2c(-c3ccc4c(c3)OCO4)cnc(N3CCC(NCc4ccc(/C=C/C(=O)NO)cc4)CC3)c2C#N)cc1F` [Example 103, (E)-3-(4-(((1-(5-(Benzo[d][1,3]dioxol-5-yl)-3-cyano-4-(4-cyano-3-fluorophenyl)pyridin-2-yl)piperidin-4-yl)amino)methyl)phenyl)-N-hydroxyacrylamide formate], the IC50 on HDAC8 amounted to 159 nM; against LSD1, 14.2 nM; on pan-HDAC, 62.3 nM; with NCI-H1417 cells (setting [4]) it was 43.3 nM; in the assay with NCI-H69 cells (setting [5]), 83.6 nM; in the assay with DU145 cells (setting [6]), 254 nM.
`COc1ccc(-c2cnc(N3CCC(NCCCc4ccc(C(=O)NO)cc4)CC3)c(C#N)c2-c2ccc(C#N)c(F)c2)cc1O` [Example 107, 4-(3-(3-Cyano-4-(4-cyano-3-fluorophenyl)-5-(3-hydroxy-4-methoxyphenyl)pyridin-2-yl)piperidin-4-yl)amino)propyl)-N-hydroxybenzamide formate]: the IC50 at HDAC8 was found to be 50.6 nM; on LSD1 it was 1.29 nM; against pan-HDAC it was 378 nM; in the assay on NCI-H1417 cells (setting [4]), 10.4 nM; in the assay with NCI-H69 cells (setting [5]), 1040 nM; in the assay on DU145 cells (setting [6]), 2330 nM.

As usually defined, the IC50 is the midpoint of a concentration-inhibition curve.

These data come from patent US20250304549A1, “HYDROXYAMIDE DERIVATIVE AND USE THEREOF” (SICHUAN HUIYU PHARMACEUTICAL CO., LTD., priority 2022, published 2025).
